Assay results reported in patent US4874856A, “3-(substituted)propenyl-7-(aminothiazolylacetamido) ceph-3-em-4-carboxylic acids and esters thereof” (Bristol-Myers Company, priority 1987, dated 1989).
In brackets after ≈: the same amount, converted by molar mass. Like-named read-outs stand apart in the source and are kept apart here.

How the values were obtained:
Experiment in all cases: In vitro MIC, Mueller-Hinton agar, inoculum 10^6 cells/ml
Format in all cases: cell-based
Citrobacter freundii = system: Citrobacter freundii
Text: (§1) Table 6 is a comparison of the in vitro antibacterial activities of Compound 29 and the vinyl homolog thereof FK-482 against clinically important pathogens. Thirty-seven organisms were more than 4-fold more susceptible to Compound 29 than to FK-482. FK-482 has the following formula and is described by Takaya, et al. in U.S. Pat. No. 4,559,334 patented Dec. 17, 1985 (filed Oct. 20, 1983). [drawing 14]
(§2) *; Geometric mean of MIC (μg/ml)
(§3) Mueller-Hinton agar Inoculum size; 10^6 cells/ml

Serratia species = system: Serratia species
Text: as §1, §2, §3

Proteus vulgaris = system: Proteus vulgaris
Text: as §1, §2, §3

Serratia marcescens = system: Serratia marcescens
Text: as §1, §2, §3

Enterobacter aerogenes = conditions: Klebsiella aerogenes
Text: as §1, §2, §3

Morganella morganii = system: Morganella morganii
Text: as §1, §2, §3

Enterobacter cloacae = system: Enterobacter cloacae
Text: as §1, §2, §3

Providencia rettgeri = system: Providencia rettgeri
Text: as §1, §2, §3

Proteus mirabilis = system: Proteus mirabilis
Text: as §1, §2, §3

MIC (Citrobacter freundii; (GM) of the Citrobacter freundii strains, read-out: Geometric mean of MIC): 4.1 µg/mL (≈ 10.4 µM)
MIC (Citrobacter freundii; strain A21312, read-out: MIC): > 50 µg/mL
MIC (Citrobacter freundii; strain A22140, read-out: MIC): 3.1 µg/mL (≈ 7.84 µM)
MIC (Citrobacter freundii; strain A22141, read-out: MIC): 3.1 µg/mL (≈ 7.84 µM)
MIC (Citrobacter freundii; strain A22142, read-out: MIC): 0.8 µg/mL (≈ 2.02 µM)
MIC (Citrobacter freundii; strain A22160, read-out: MIC): 6.3 µg/mL (≈ 15.9 µM)
MIC (Citrobacter freundii; strain A22161, read-out: MIC): 0.8 µg/mL (≈ 2.02 µM)
MIC (Citrobacter freundii; strain A22166, read-out: MIC): 3.1 µg/mL (≈ 7.84 µM)
MIC (Citrobacter freundii; strain A22175, read-out: MIC): 0.8 µg/mL (≈ 2.02 µM)
MIC (Citrobacter freundii; strain A22176, read-out: MIC): 3.1 µg/mL (≈ 7.84 µM)
MIC (Citrobacter freundii; strain A22177, read-out: MIC): 50 µg/mL (≈ 126 µM)
MIC (Serratia species; (GM) of the Serratia species strains, read-out: Geometric mean of MIC): > 50 µg/mL
MIC (Serratia species; strain 6-330, read-out: MIC): 25 µg/mL (≈ 63.2 µM)
MIC (Serratia species; strain 6-427, read-out: MIC): 25 µg/mL (≈ 63.2 µM)
MIC (Serratia species; strain 6-920, read-out: MIC): > 50 µg/mL
MIC (Serratia species; strain 7-255, read-out: MIC): > 50 µg/mL
MIC (Serratia species; strain 7-454, read-out: MIC): > 50 µg/mL
MIC (Serratia species; strain 7-2322, read-out: MIC): > 50 µg/mL
MIC (Serratia species; strain 8-185, read-out: MIC): > 50 µg/mL
MIC (Serratia species; strain 8-513, read-out: MIC): > 50 µg/mL
MIC (Serratia species; strain 8-785, read-out: MIC): > 50 µg/mL
MIC (Serratia species; strain 8-1537, read-out: MIC): > 50 µg/mL
MIC (Serratia species; strain 9-50, read-out: MIC): > 50 µg/mL
MIC (Serratia species; strain 9-690, read-out: MIC): > 50 µg/mL
MIC (Proteus vulgaris; (GM) of the Proteus vulgaris strains, read-out: Geometric mean of MIC): 6.3 µg/mL (≈ 15.9 µM)
MIC (Proteus vulgaris; strain A 9436, read-out: MIC): 0.4 µg/mL (≈ 1.01 µM)
MIC (Proteus vulgaris; strain A 9526, read-out: MIC): 25 µg/mL (≈ 63.2 µM)
MIC (Proteus vulgaris; strain A 9699, read-out: MIC): 25 µg/mL (≈ 63.2 µM)
MIC (Proteus vulgaris; strain AKH-26, read-out: MIC): > 50 µg/mL
MIC (Proteus vulgaris; strain HX-19 MS-1, read-out: MIC): 0.8 µg/mL (≈ 2.02 µM)
MIC (Proteus vulgaris; strain OX-19 MS-1, read-out: MIC): 3.1 µg/mL (≈ 7.84 µM)
MIC (Serratia marcescens; (GM) of the Serratia marcescens strains, read-out: Geometric mean of MIC): 31 µg/mL (≈ 78.4 µM)
MIC (Serratia marcescens; strain A20019, read-out: MIC): 12.5 µg/mL (≈ 31.6 µM)
MIC (Serratia marcescens; strain A20222, read-out: MIC): 25 µg/mL (≈ 63.2 µM)
MIC (Serratia marcescens; strain A20333, read-out: MIC): > 50 µg/mL
MIC (Serratia marcescens; strain A20334, read-out: MIC): > 50 µg/mL
MIC (Serratia marcescens; strain A20335, read-out: MIC): 12.5 µg/mL (≈ 31.6 µM)
MIC (Serratia marcescens; strain A20336, read-out: MIC): 12.5 µg/mL (≈ 31.6 µM)
MIC (Serratia marcescens; strain A20442, read-out: MIC): 3.1 µg/mL (≈ 7.84 µM)
MIC (Serratia marcescens; strain A20459, read-out: MIC): > 50 µg/mL
MIC (Serratia marcescens; strain A20460, read-out: MIC): 50 µg/mL (≈ 126 µM)
MIC (Serratia marcescens; strain A20461, read-out: MIC): > 50 µg/mL
MIC (Enterobacter aerogenes; (GM) of the Enterobacter aerogenes strains, read-out: Geometric mean of MIC): 9.8 µg/mL (≈ 24.8 µM)
MIC (Enterobacter aerogenes; strain A20940, read-out: MIC): > 50 µg/mL
MIC (Enterobacter aerogenes; strain A20941, read-out: MIC): 6.3 µg/mL (≈ 15.9 µM)
MIC (Enterobacter aerogenes; strain A20943, read-out: MIC): 6.3 µg/mL (≈ 15.9 µM)
MIC (Enterobacter aerogenes; strain A20958, read-out: MIC): 6.3 µg/mL (≈ 15.9 µM)
MIC (Enterobacter aerogenes; strain A20961, read-out: MIC): 12.5 µg/mL (≈ 31.6 µM)
MIC (Enterobacter aerogenes; strain A20966, read-out: MIC): 6.3 µg/mL (≈ 15.9 µM)
MIC (Enterobacter aerogenes; strain A20971, read-out: MIC): 6.3 µg/mL (≈ 15.9 µM)
MIC (Enterobacter aerogenes; strain A20985, read-out: MIC): > 50 µg/mL
MIC (Enterobacter aerogenes; strain A20994, read-out: MIC): 25 µg/mL (≈ 63.2 µM)
MIC (Enterobacter aerogenes; strain A20996, read-out: MIC): 3.1 µg/mL (≈ 7.84 µM)
MIC (Enterobacter aerogenes; strain A21013, read-out: MIC): 6.3 µg/mL (≈ 15.9 µM)
MIC (Enterobacter aerogenes; strain A21036, read-out: MIC): 50 µg/mL (≈ 126 µM)
MIC (Enterobacter aerogenes; strain A21037, read-out: MIC): 3.1 µg/mL (≈ 7.84 µM)
MIC (Enterobacter aerogenes; strain A21038, read-out: MIC): 1.6 µg/mL (≈ 4.05 µM)
MIC (Enterobacter aerogenes; strain A21039, read-out: MIC): 6.3 µg/mL (≈ 15.9 µM)
MIC (Enterobacter aerogenes; strain A21043, read-out: MIC): 25 µg/mL (≈ 63.2 µM)
MIC (Enterobacter aerogenes; strain A21044, read-out: MIC): 25 µg/mL (≈ 63.2 µM)
MIC (Enterobacter aerogenes; strain A21118, read-out: MIC): > 50 µg/mL
MIC (Enterobacter aerogenes; strain A21120, read-out: MIC): 6.3 µg/mL (≈ 15.9 µM)
MIC (Enterobacter aerogenes; strain A21130-1, read-out: MIC): 6.3 µg/mL (≈ 15.9 µM)
MIC (Enterobacter aerogenes; strain A21131, read-out: MIC): 6.3 µg/mL (≈ 15.9 µM)
MIC (Enterobacter aerogenes; strain A21152, read-out: MIC): 1.6 µg/mL (≈ 4.05 µM)
MIC (Enterobacter aerogenes; strain A21155, read-out: MIC): 6.3 µg/mL (≈ 15.9 µM)
MIC (Enterobacter aerogenes; strain A21158, read-out: MIC): 6.3 µg/mL (≈ 15.9 µM)
MIC (Enterobacter aerogenes; strain A21503, read-out: MIC): 6.3 µg/mL (≈ 15.9 µM)
MIC (Morganella morganii; (GM) of the Morganella morganii strains, read-out: Geometric mean of MIC): 25 µg/mL (≈ 63.2 µM)
MIC (Morganella morganii; IFO3843, strain IFO 3843 MS-1, read-out: MIC): 12.5 µg/mL (≈ 31.6 µM)
MIC (Morganella morganii; strain A 9636, read-out: MIC): > 50 µg/mL
MIC (Morganella morganii; strain A20455, read-out: MIC): 12.5 µg/mL (≈ 31.6 µM)
MIC (Enterobacter cloacae; (GM) of the Enterobacter cloacae strains, read-out: Geometric mean of MIC): 21 µg/mL (≈ 53.1 µM)
MIC (Enterobacter cloacae; strain A 9655, read-out: MIC): > 50 µg/mL
MIC (Enterobacter cloacae; strain A 9659, read-out: MIC): > 50 µg/mL
MIC (Enterobacter cloacae; strain A20344, read-out: MIC): > 50 µg/mL
MIC (Enterobacter cloacae; strain A20364, read-out: MIC): 6.3 µg/mL (≈ 15.9 µM)
MIC (Enterobacter cloacae; strain A20464, read-out: MIC): 3.1 µg/mL (≈ 7.84 µM)
MIC (Enterobacter cloacae; strain A20650, read-out: MIC): 0.8 µg/mL (≈ 2.02 µM)
MIC (Enterobacter cloacae; strain A22551, read-out: MIC): > 50 µg/mL
MIC (Providencia rettgeri; (GM) of the Providencia rettgeri strains, read-out: Geometric mean of MIC): 0.07 µg/mL (≈ 0.177 µM)
MIC (Providencia rettgeri; IFO3850, strain IFO 3850 MS-1, read-out: MIC): 0.013 µg/mL (≈ 0.0329 µM)
MIC (Providencia rettgeri; strain A 9637, read-out: MIC): < 0.0063 µg/mL
MIC (Providencia rettgeri; strain A15167 (first line), read-out: MIC): 0.013 µg/mL (≈ 0.0329 µM)
MIC (Providencia rettgeri; strain A15167 (second line), read-out: MIC): 0.1 µg/mL (≈ 0.253 µM)
MIC (Providencia rettgeri; strain A20645, read-out: MIC): 6.3 µg/mL (≈ 15.9 µM)
MIC (Providencia rettgeri; strain A20915, read-out: MIC): 3.1 µg/mL (≈ 7.84 µM)
MIC (Providencia rettgeri; strain A20920, read-out: MIC): 0.013 µg/mL (≈ 0.0329 µM)
MIC (Providencia rettgeri; strain A20921, read-out: MIC): 0.025 µg/mL (≈ 0.0632 µM)
MIC (Providencia rettgeri; strain A21205, read-out: MIC): 0.1 µg/mL (≈ 0.253 µM)
MIC (Providencia rettgeri; strain A21270, read-out: MIC): 0.1 µg/mL (≈ 0.253 µM)
MIC (Proteus mirabilis; (GM) of the Proteus mirabilis strains, read-out: Geometric mean of MIC): 0.14 µg/mL (≈ 0.354 µM)
MIC (Proteus mirabilis; IFO3849, strain IFO 3849 MS-1, read-out: MIC): 0.2 µg/mL (≈ 0.506 µM)
MIC (Proteus mirabilis; strain A 9554, read-out: MIC): 0.2 µg/mL (≈ 0.506 µM)
MIC (Proteus mirabilis; strain A 9702, read-out: MIC): 0.1 µg/mL (≈ 0.253 µM)
MIC (Proteus mirabilis; strain A 9716, read-out: MIC): 0.2 µg/mL (≈ 0.506 µM)
MIC (Proteus mirabilis; strain A20119, read-out: MIC): 0.1 µg/mL (≈ 0.253 µM)
MIC (Proteus mirabilis; strain A20342, read-out: MIC): 0.2 µg/mL (≈ 0.506 µM)
MIC (Proteus mirabilis; strain A20454, read-out: MIC): 0.1 µg/mL (≈ 0.253 µM)
MIC (Proteus mirabilis; strain A21222, read-out: MIC): 0.1 µg/mL (≈ 0.253 µM)
SMILES: C=CC1=C(C(=O)O)N2C(=O)[C@@H](NC(=O)/C(=N\O)c3csc(N)n3)[C@H]2SC1 [FK-482, reference compound]
